Reference: ChEMBL document CHEMBL1667830, “Non-oxime inhibitors of B-Raf(V600E) kinase” (Bioorg Med Chem Lett, 2011)

Experiments:
[1] = molecular target: Serine/threonine-protein kinase B-raf (Homo sapiens, UniProt P15056, V600E); test: Inhibition of B-Raf V600E mutant
[2] = Permeability across human Caco2 cells; type: ADME, cell-based; details: Caco-2, read-out: permeability
[3] = AUC (0 to infinity) in mouse at 25 mg/kg, po; type: ADME, organism-based; set-up: time infinity, dose 25 mg/kg, route oral; details: plasma
[4] = Cmax in mouse at 25 mg/kg, po; type: ADME, organism-based; set-up: dose 25 mg/kg, route oral; details: in vivo

Serine/threonine-protein kinase B-raf, sequence (P15056 2-766 V600E limits assumed): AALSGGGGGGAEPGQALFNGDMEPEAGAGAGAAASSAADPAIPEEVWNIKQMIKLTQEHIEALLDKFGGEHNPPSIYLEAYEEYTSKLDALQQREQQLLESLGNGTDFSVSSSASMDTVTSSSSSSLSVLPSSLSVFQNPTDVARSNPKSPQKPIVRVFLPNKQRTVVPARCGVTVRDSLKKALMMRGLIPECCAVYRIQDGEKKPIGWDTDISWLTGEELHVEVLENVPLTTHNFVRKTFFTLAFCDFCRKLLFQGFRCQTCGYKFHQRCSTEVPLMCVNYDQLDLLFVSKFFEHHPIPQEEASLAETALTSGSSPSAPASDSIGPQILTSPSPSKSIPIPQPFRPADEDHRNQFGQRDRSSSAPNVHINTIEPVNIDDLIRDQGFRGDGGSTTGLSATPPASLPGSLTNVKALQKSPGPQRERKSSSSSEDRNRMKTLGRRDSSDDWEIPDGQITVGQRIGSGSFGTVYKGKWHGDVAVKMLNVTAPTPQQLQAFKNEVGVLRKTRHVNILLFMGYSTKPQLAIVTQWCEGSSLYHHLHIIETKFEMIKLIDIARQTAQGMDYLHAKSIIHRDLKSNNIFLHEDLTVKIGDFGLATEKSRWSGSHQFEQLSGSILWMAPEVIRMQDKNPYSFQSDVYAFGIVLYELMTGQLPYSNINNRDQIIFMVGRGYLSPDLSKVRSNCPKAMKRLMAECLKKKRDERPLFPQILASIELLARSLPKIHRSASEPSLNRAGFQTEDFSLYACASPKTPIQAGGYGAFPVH

Row | SMILES | IC50 [1] [nM] | other results
1 | NCCCc1n[nH]c2c(Cl)ccc(Nc3c(-c4ncccn4)oc4cnccc34)c12 | 4.3 | –
2 | CC(C)NC(=O)c1oc2cnccc2c1Nc1ccc2c(c1)CN/C2=N\O | 5.2 | –
3 | O=C1CCc2cc(Nc3c(-c4ncccn4)oc4cnccc34)ccc21 | 16 | –
4 | CCOC(=O)c1oc2cnccc2c1Nc1ccc2c(c1)CCC2=O | 93 | –
5 | O/N=C1\NCc2cc(Nc3c(-c4ncccn4)oc4cnccc34)ccc21 | 0.5 | –
6 | CC(C)NC(=O)c1oc2cnccc2c1Nc1ccc2c(c1)Cc1c[nH]nc1-2 | 38 | –
7 | CN/C=C/NC(=O)c1oc2cnccc2c1Nc1ccc2c(c1)Cc1c[nH]nc1-2 | 42.9 | –
8 | c1cnc(-c2oc3cnccc3c2Nc2ccc3c(c2)Cc2c[nH]nc2-3)nc1 | 4 | Papp [2]: > 8 ×10⁻⁶ cm/s; AUC(0-inf) [3]: 10400 ng·h/mL; Cmax [4]: 2220 ng/mL
9 | CCOC(=O)c1oc2cnccc2c1Nc1ccc2ccccc2c1 | 179 | –
10 | CCOC(=O)c1oc2cnccc2c1Nc1cnc2ccccc2c1 | 30 | –
11 | CCOC(=O)c1oc2cnccc2c1Nc1ccc2c(N)cccc2c1 | 52 | –
12 | CCOC(=O)c1oc2cnccc2c1Nc1ccc2c(O)cccc2c1 | 1.1 | –
13 | CCOC(=O)c1oc2cnccc2c1Nc1ccc2c(O)c(F)ccc2c1 | 3 | –
14 | CC(C)NC(=O)c1oc2cnccc2c1Nc1ccc2c(O)cccc2c1 | 1.4 | –
15 | CN(C)/C=C/NC(=O)c1oc2cnccc2c1Nc1ccc2c(O)cccc2c1 | 5 | –
16 | Oc1cccc2cc(Nc3c(-c4ncccn4)oc4cnccc34)ccc12 | 1 | –

Row | SMILES | IC50 [1] [nM] | other results
17 | CN1CCN(Cc2cnc(-c3oc4cnccc4c3Nc3ccc4c(O)cccc4c3)nc2)CC1 | 2 | –
18 | CCOC(=O)c1oc2cnccc2c1Nc1ccc(Cl)c(O)c1 | 2.3 | –
19 | CC(C)NC(=O)c1oc2cnccc2c1Nc1ccc(Cl)c(O)c1 | 4 | –
20 | O=C(Nc1ncccn1)c1oc2cnccc2c1Nc1ccc(Cl)c(O)c1 | 1.6 | –
21 | c1cnc(-c2oc3cnccc3c2Nc2cccc3[nH]ncc23)nc1 | 14 | –
22 | Clc1ccc(Nc2c(-c3ncccn3)oc3cnccc23)c2cn[nH]c12 | 4.2 | Papp [2]: < 2 ×10⁻⁶ cm/s
23 | Clc1cc(Nc2c(-c3ncccn3)oc3cnccc23)c2cn[nH]c2c1 | 5.7 | –
24 | Clc1ccc2[nH]ncc2c1Nc1c(-c2ncccn2)oc2cnccc12 | 240 | Papp [2]: 2 ×10⁻⁶ cm/s; AUC(0-inf) [3]: 17000 ng·h/mL; Cmax [4]: 3730 ng/mL
25 | CC(C)NC(=O)c1oc2cnccc2c1Nc1ccc(Cl)c2[nH]ncc12 | 2.7 | –
26 | Cc1ccc(Nc2c(-c3ncccn3)oc3cnccc23)c2cn[nH]c12 | 2.4 | –
27 | Fc1ccc(Nc2c(-c3ncccn3)oc3cnccc23)c2cn[nH]c12 | 2 | –
28 | Cc1cc(Nc2c(-c3ncccn3)oc3cnccc23)c2cn[nH]c2c1Cl | 0.3 | –
29 | CCc1n[nH]c2c(Cl)ccc(Nc3c(-c4ncccn4)oc4cnccc34)c12 | 0.8 | –
30 | OCCCc1n[nH]c2c(Cl)ccc(Nc3c(-c4ncccn4)oc4cnccc34)c12 | 0.8 | –
31 | CCOC(=O)c1oc2cnccc2c1Nc1ccc2c(c1)CC/C2=N/O | < 2 | –
